The values below are quoted from earlier work in patent US5744316A, “Isolated, tyrosinase derived peptides and uses thereof” (Ludwig Institute for Cancer Research, priority 1996, dated 1998).

Where no end group is shown, it is not given here.

One series deals with HLA-B44. To be noted: Burrows et al. 1990.
Another series deals with HLA-B*4402 molecules (Homo sapiens, UniProt P01889, A223V/A65T/A93T/A95T/D201E/D98Y/E176V/E187L/E204Q/E69K/G107R/H137Y/K202T/L105A/L119I/N104T/N87E/Q56L/Q94N/R106L/R155S/R180D/S101N/S121R/S35A/S48T/T118I/V36M/W191S/Y140D/Y91S). To be noted: Coulie et al. 1995.

As for EENLLDFVRF [SEQ ID NO: 9], the “binding by HLA-B44” value in the series with HLA-B44 was “bound”. For the sequence EEKLIVVLF [SEQ ID NO: 11], the “binding to HLA-B*4402 molecules” value with HLA-B*4402 molecules is on record as “binds”.
